Results as given in patent publication US20240417410A1, “TRICYCLIC COMPOUNDS FOR THE TREATMENT OF CANCER” (Hoffmann-La Roche Inc., priority 2023, published 2024).

Tests used:
[1] = system: AGS cells (KRAS G12D); test: Cell viability assay (Cell Counting Kit-8, 3-day); assay type: cell-based, human; conditions: Homo sapiens, 72 h, 72 hrs incubation
Description: (§1) The purpose of this cellular assay was to determine the effects of test compounds on the proliferation of human cancer cell lines NCI-H358 (ATCC-CRL5807) cells, AGS (ATCC-CRL-1739) cells, SW620 (ATCC-CCL-227) over a 3-day treatment period by quantifying the amount of NADPH present at endpoint using Cell Counting Kit-8.
(§2) Cells were seeded at 5,000 cells/well (NCI-H358), 2,000 cells/well (AGS) 2,000 cells/well (SW620) in 96-well assay plates (Corning-3699) and incubated overnight. On the day of the assay, diluted compounds were then added in a final concentration of 0.5% DMSO. After 72 hrs incubation, a tenth of the volume of cell counting kit 8 (Dnjindo-CK04) was added into each well. Read the signal (OD450 minus OD650) using EnVision after 2 hrs incubation. IC50 was determined by fitting a 4-parameter sigmoidal concentration response model.

[2] = system: SW620 cells (KRAS G12V); test: Cell viability assay (Cell Counting Kit-8, 3-day); assay type: cell-based, human; conditions: Homo sapiens, SW-620; SW620, 72 hrs incubation
Description: as §1, §2

[3] = system: NCI-H358 cells (KRAS G12C); test: Cell viability assay (Cell Counting Kit-8, 3-day); assay type: cell-based, human; conditions: Homo sapiens, NCI-H358, 72 h, NCI-H358, 72 hrs incubation
Description: as §1, §2

[4] = system: phosphorylation of ERK, KRAS G12C in NCI-H358 cells; test: pERK inhibition assay; assay type: cell-based; conditions: Homo sapiens, NCI-H358, 4 h
Description: (§3) This assay is to measure the ability of test compounds in inhibiting the phosphorylation of ERK, the downstream signaling of KRAS G12C in NCI-H358 cells, KRAS G12D in AGS cells, and KRAS G12V in SW620. NCI-H358 (ATCC-CRL5807) cells, AGS (ATCC-CRL-1739) cells, SW620 (ATCC-CCL-227) cells were all grown and maintained using RPMI-1640 medium (Thermo Fisher Scientific) with 10% fetal bovine serum and 1% penicillin/streptomycin. On the day prior to compound addition, cells were plated in tissue culture-treated 96 well plates (Corning-3699) at a density of 30,000 cell/well, 20,000 cell/well, 30,000 cell/well for NCI-H358, AGS and SW620 respectively, and allowed for attachment overnight. Diluted compounds were then added in a final concentration of 0.5% DMSO. After 4 hours of incubation, the medium was removed, 100 μL of 4% formaldehyde was added, and the assay plates were incubated at room temperature for 20 minutes. The plates were then washed once with phosphate buffered saline (PBS), and permeabilized with 100 μL of chilled methanol for 10 minutes. Non-specific antibody binding to the plates was blocked using 50 μL 1X BSA blocking buffer (Thermo-37520, 10-fold dilution by Phosphate-Buffered Saline Tween (PBST) for at least 1 hour at room temperature.
(§4) The amount of phosphor-ERK was determined using an antibody specific for phosphorylated form of ERK. Primary antibody (PERK, CST-4370, Cell Signaling Technology) was diluted 1:300 in blocking buffer, with 50 μL aliquoted to each well, and incubated overnight at 4° C. Cells was washed five times for 5 minutes with PBST. Secondary antibody (HRP-linked anti-rabbit IgG, CST-7074, Cell Signaling Technology) was diluted 1:1000 in blocking buffer, and 50 μL was added to each well and incubated 1-2 hrs at room temperature. Cells was washed […] for 5 minutes with PBST, 100 μL TMB ELISA substrate (abcam-ab171523) were added and gently shake for 20 minutes. 50 μL stop solution (abcam-ab 171529) were added, and then read the signal (OD450) by EnVision.
(§5) IC50 was determined by fitting a 4-parameter sigmoidal concentration response model.

[5] = system: phosphorylation of ERK, KRAS G12V in SW620; test: pERK inhibition assay; assay type: cell-based; conditions: Homo sapiens, SW-620, 4 h, SW620 cells
Description: as §3, §4, §5

[6] = system: phosphorylation of ERK, KRAS G12D in AGS cells; test: pERK inhibition assay; assay type: cell-based; conditions: Homo sapiens, AGS, 4 h
Description: as §3, §4, §5

Structure (SMILES)	IC50 [1] [nM]	IC50 [2] [nM]	IC50 [3] [nM]	IC50 [4] [nM]	IC50 [5] [nM]	IC50 [6] [nM]
CO[C@@H](C)c1ncc(N2CCN(C)CC2)cc1-c1c2c3cc(cc4c3n1CC(F)(F)C4)-c1csc(n1)C[C@H](NC(=O)[C@H]1C[C@@H]1c1ccccc1)C(=O)N1CCC[C@H](N1)C(=O)OCC(C)(C)C2 (atropisomer, axis not shown; (M)) [Example 78]	30.6	2.3	9.8	2	1.1	10.1
CO[C@@H](C)c1ncc(N2CCN(CC(F)(F)F)CC2)cc1-c1c2c3cc(cc4c3n1CC(F)(F)C4)-c1csc(n1)C[C@H](NC(=O)[C@H]1C[C@@H]1C)C(=O)N1CCC[C@H](N1)C(=O)OCC(C)(C)C2 (atropisomer, axis not shown; (M)) [Example 67, (1S,2S)-N-[(7S,13S)-23,23-difluoro-(20M)-20-[2-[(1S)-1-methoxyethyl]-5-[4-(2,2,2-trifluoroethyl)piperazin-1-yl]-3-pyridyl]-17,17-dimethyl-8,14-dioxo-15-oxa-4-thia-9,21,30,31-tetrazahexacyclo[23.3.1.1^2,5.1^9,13.0^19,27.0^21,26]hentriaconta-1 (28),2,5 (31),19,25 (29),26-hexaen-7-yl]-2-methyl-cyclopropanecarboxamide]				2.4	3.2	31.8
CO[C@@H](C)c1ncc(N2CCN(C)CC2)cc1-c1c2c3cc(cc4c3n1CCC4)-c1csc(n1)C[C@H](NC(=O)[C@H]1C[C@@H]1c1ncccn1)C(=O)N1CCC[C@H](N1)C(=O)OCC(C)(C)C2 [Example 80, (1S,2S)-N-[(7S,13S)-(20M)-20-[2-[(1S)-1-methoxyethyl]-5-(4-methylpiperazin-1-yl)-3-pyridyl]-17,17-dimethyl-8,14-dioxo-15-oxa-4-thia-9,21,30,31-tetrazahexacyclo[23.3.1.1^2,5.1^9,13.0^19,27.0^21,26]hentriaconta-1 (28),2,5 (31), 19,25 (29),26-hexaen-7-yl]-2-pyrimidin-2-yl-cyclopropanecarboxamide]				5.1	4.2	47.4

Molecules with a lower IC50 [4], results first:

IC50 [1] [nM]	IC50 [2] [nM]	IC50 [3] [nM]	IC50 [4] [nM]	IC50 [5] [nM]	IC50 [6] [nM]	Structure (SMILES)
11.4	0.8	2.5	< 0.6	< 0.6	1.6	CO[C@@H](C)c1ncc(N2CCN(C)CC2)cc1-c1c2c3cc(cc4c3n1CCC4)-c1csc(n1)C[C@H](NC(=O)[C@H]1C[C@@H]1c1ccccc1F)C(=O)N1CCC[C@H](N1)C(=O)OCC(C)(C)C2 [Example 29, (1S,2S)-2-(2-fluorophenyl)-N-[(7S,13S)-(20M)-20-[2-[(1S)-1-methoxyethyl]-5-(4-methylpiperazin-1-yl)-3-pyridyl]-17,17-dimethyl-8,14-dioxo-15-oxa-4-thia-9,21,30,31-tetrazahexacyclo[23.3.1.1^2,5.1^9,13.0^19,27.0^21,26]hentriaconta-1 (28),2,5 (31),19,25 (29),26-hexaen-7-yl]cyclopropanecarboxamide]
11.9	0.9	3.6	0.7	0.3	3.8	CO[C@@H](C)c1ncc(N2CCOCC2)cc1-c1c2c3cc(cc4c3n1CCO4)-c1csc(n1)C[C@H](NC(=O)[C@H]1C[C@@H]1c1ccccc1)C(=O)N1CCC[C@H](N1)C(=O)OCC(C)(C)C2 (atropisomer, axis not shown; (M)) [Example 43, (1S,2S)-N-[(7S,13S)-(20M)-20-[2-[(1S)-1-methoxyethyl]-5-morpholino-3-pyridyl]-17,17-dimethyl-8,14-dioxo-15,24-dioxa-4-thia-9,21,30,31-tetrazahexacyclo[23.3.1.1^2,5.1^9,13.0^19,27.0^21,26]hentriaconta-1 (29),2,5 (31), 19,25,27-hexaen-7-yl]-2-phenyl-cyclopropanecarboxamide]
